In the experiment the target is T1, BRD4 BD2 (Homo sapiens, UniProt O60885, Y97A).
T1 construct: BRD4 (1-477) (Y97A) and (Y390A); made in house; host or cells: E. coli (pET15b vector)
Description: TR-FRET binding assay, BRD4 BD2 (BD1-mutated protein). Conditions: read-out: pIC50 in the BRD4 BD2 assay (converted). The procedure, abridged:
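Displacement of Alexa Fluor647-labelled bromodomain ligand (at Kd) from 10 nM His-tagged BRD4 (1-477, Y97A) read by Eu-anti-His TR-FRET (665/615 ratio) in pH 7.4 HEPES buffer, 0.5% DMSO. Compound preincubated 30 min at rt, detection ≥30 min. pIC50 derived from four-parameter fit after normalisation to controls.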
(In general: Time-resolved FRET reads energy transfer from a long-lived donor to a nearby acceptor.)

Turning to `CC(=O)N1c2ccc(C(N)=O)cc2[C@H](Nc2nccc(N(C)C)n2)[C@@H](C)[C@@H]1C1CC1` [Example 387, (2S,3R,4R)-1-acetyl-2-cyclopropyl-4-((4-(dimethylamino)pyrimidin-2-yl)amino)-3-methyl-1,2,3,4-tetrahydroquinoline-6-carboxamide], the IC50 was 1000 to 100000 nM. The value for `COc1cc(C#N)ccc1N[C@H]1c2cc(C(N)=O)ccc2N(C(C)=O)[C@@H](C2CC2)[C@@H]1C` [Example 390, (2S,3R,4R)-1-acetyl-4-((4-cyano-2-methoxyphenyl)amino)-2-cyclopropyl-3-methyl-1,2,3,4-tetrahydroquinoline-6-carboxamide] was 100 nM; that for `CC(=O)N1c2ccc(C(N)=O)cc2[C@H](Nc2cnc(C#N)c(Cl)c2)[C@@H](C)[C@@H]1C1CC1` [Example 391, (2S,3R,4R)-1-acetyl-4-((5-chloro-6-cyanopyridin-3-yl)amino)-2-cyclopropyl-3-methyl-1,2,3,4-tetrahydroquinoline-6-carboxamide] was 1000 to 100000 nM; that for `COc1ccc(N[C@H]2c3cc(C(N)=O)ccc3N(C(C)=O)[C@@H](C3CC3)[C@@H]2C)c(C#N)c1` [Example 392, (2S,3R,4R)-1-acetyl-4-((2-cyano-4-methoxyphenyl)amino)-2-cyclopropyl-3-methyl-1,2,3,4-tetrahydroquinoline-6-carboxamide] was 100 nM. The value for `CC(=O)N1c2ccc(C(N)=O)cc2[C@H](Nc2ncccn2)[C@@H](C)[C@@H]1C1CC1` [Example 399, (2S,3R,4R)-1-acetyl-2-cyclopropyl-3-methyl-4-(pyrimidin-2-ylamino)-1,2,3,4-tetrahydroquinoline-6-carboxamide] was 100 nM; that for `CC(=O)N1c2ccc(C(N)=O)cc2[C@H](Nc2ccc(C#N)cn2)[C@@H](C)[C@@H]1C1CC1` [Example 400, (2S,3R,4R)-1-acetyl-4-((5-cyanopyridin-2-yl)amino)-2-cyclopropyl-3-methyl-1,2,3,4-tetrahydroquinoline-6-carboxamide] was 100 nM; that for `CC(=O)N1c2ccc(C(N)=O)cc2[C@H](Nc2ncc(Cl)cn2)[C@@H](C)[C@@H]1C1CC1` [Example 403, (2S,3R,4R)-1-acetyl-4-((5-chloropyrimidin-2-yl)amino)-2-cyclopropyl-3-methyl-1,2,3,4-tetrahydroquinoline-6-carboxamide] was 100 nM. In the case of `CCc1ccnc(N[C@H]2c3cc(C(N)=O)ccc3N(C(C)=O)[C@@H](C3CC3)[C@@H]2C)n1` [Example 407, (2S,3R,4R)-1-acetyl-2-cyclopropyl-4-((4-ethylpyrimidin-2-yl)amino)-3-methyl-1,2,3,4-tetrahydroquinoline-6-carboxamide], the IC50 was 100 nM.

On to `CC(=O)N1c2ccc(C(N)=O)cc2[C@H](Nc2nc(C)cc(C)n2)[C@@H](C)[C@@H]1C1CC1` [Example 408, (2S,3R,4R)-1-acetyl-2-cyclopropyl-4-((4,6-dimethylpyrimidin-2-yl)amino)-3-methyl-1,2,3,4-tetrahydroquinoline-6-carboxamide], for which the IC50 is 1000 to 100000 nM.

As to `CC(=O)N1c2ccc(C(N)=O)cc2[C@H](Nc2nccc(C(C)C)n2)[C@@H](C)[C@@H]1C1CC1` [Example 411, (2S,3R,4R)-1-acetyl-2-cyclopropyl-4-((4-isopropylpyrimidin-2-yl)amino)-3-methyl-1,2,3,4-tetrahydroquinoline-6-carboxamide], the IC50 was 100 nM.

In the case of `CC(=O)N1c2ccc(C(N)=O)cc2[C@H](Nc2nccc(C3=CCOCC3)n2)[C@@H](C)[C@@H]1C1CC1` [Example 413], the IC50 is 100 nM. In the case of `CC(=O)N1c2ccc(C(N)=O)cc2[C@H](Nc2ncccc2C(N)=O)[C@@H](C)[C@@H]1C1CC1` [Example 418, (2S,3R,4R)-1-acetyl-4-((3-carbamoylpyridin-2-yl)amino)-2-cyclopropyl-3-methyl-1,2,3,4-tetrahydroquinoline-6-carboxamide], the IC50 was 100 nM. Regarding `Cc1ccnc(N[C@H]2c3cc(C(N)=O)ccc3N(C(=O)C(C)C)[C@@H](C3CC3)[C@@H]2C)n1` [Example 422, (2S,3R,4R)-2-cyclopropyl-1-isobutyryl-3-methyl-4-((4-methylpyrimidin-2-yl)amino)-1,2,3,4-tetrahydroquinoline-6-carboxamide], the IC50 was 1000 to 100000 nM. Regarding `CC(=O)N1c2ccc(C(=O)NCCO)cc2[C@H](Nc2ncc(F)c(C)n2)[C@@H](C)[C@@H]1C` [Example 430, (2S,3R,4R)-1-acetyl-4-((5-fluoro-4-methylpyrimidin-2-yl)amino)-N-(2-hydroxyethyl)-2,3-dimethyl-1,2,3,4-tetrahydroquinoline-6-carboxamide], the IC50 is 100 nM. In the case of `CC(=O)N1c2ccc(C(=O)NCCO)cc2[C@H](Nc2ccc(F)c(C)n2)[C@@H](C)[C@@H]1C` [Example 433, (2S,3R,4R)-1-acetyl-4-((5-fluoro-6-methylpyridin-2-yl)amino)-N-(2-hydroxyethyl)-2,3-dimethyl-1,2,3,4-tetrahydroquinoline-6-carboxamide], the IC50 is 100 nM. In the case of `CC(=O)N1c2ccc(C(=O)NCCO)cc2[C@H](Nc2ccnc(C)n2)[C@@H](C)[C@@H]1C1CC1` [Example 441, (2S,3R,4R)-1-acetyl-2-cyclopropyl-N-(2-hydroxyethyl)-3-methyl-4-((2-methylpyrimidin-4-yl)amino)-1,2,3,4-tetrahydroquinoline-6-carboxamide] it was 1000 to 100000 nM. Take `CC(=O)N1c2ccc(C(=O)NC3CCOCC3)cc2[C@H](Nc2ccc(F)cn2)[C@@H](C)[C@@H]1C1CC1` [Example 469, (2S,3R,4R)-1-acetyl-2-cyclopropyl-4-((5-fluoropyridin-2-yl)amino)-3-methyl-N-(tetrahydro-2H-pyran-4-yl)-1,2,3,4-tetrahydroquinoline-6-carboxamide]: the IC50 is 100 nM. In the case of `COCCNC(=O)c1ccc2c(c1)[C@H](Nc1ccc(F)cn1)[C@@H](C)[C@H](C1CC1)N2C(C)=O` [Example 471, (2S,3R,4R)-1-acetyl-2-cyclopropyl-4-((5-fluoropyridin-2-yl)amino)-N-(2-methoxyethyl)-3-methyl-1,2,3,4-tetrahydroquinoline-6-carboxamide], the IC50 is 100 nM. In the case of `CC(=O)N1c2ccc(C(=O)NCCO)cc2[C@H](Nc2ccc(F)cn2)[C@@H](C)[C@@H]1C` [Example 479, (2S,3R,4R)-1-acetyl-4-((5-fluoropyridin-2-yl)amino)-N-(2-hydroxyethyl)-2,3-dimethyl-1,2,3,4-tetrahydroquinoline-6-carboxamide] it was 100 nM; in that of `COCCCNC(=O)c1ccc2c(c1)[C@H](Nc1cccc(C)n1)[C@@H](C)[C@H](C1CC1)N2C(C)=O` [Example 480, (2S,3R,4R)-1-acetyl-2-cyclopropyl-N-(3-methoxypropyl)-3-methyl-4-((6-methylpyridin-2-yl)amino)-1,2,3,4-tetrahydroquinoline-6-carboxamide], 100 nM.

Consider `CC(=O)N1c2ccc(C(=O)NC3CCOCC3)cc2[C@H](Nc2ncccn2)[C@@H](C)[C@@H]1C1CC1` [Example 484, (2S,3R,4R)-1-acetyl-2-cyclopropyl-3-methyl-4-(pyrimidin-2-ylamino)-N-(tetrahydro-2H-pyran-4-yl)-1,2,3,4-tetrahydroquinoline-6-carboxamide], for which the IC50 was 100 nM.

For the origin of these results see patent US11478478B2, “2,3-disubstituted 1-acyl-4-amino-1,2,3,4-tetrahydroquinoline derivatives and their use as bromodomain inhibitors” (GLAXOSMITHKLINE INTELLECTUAL PROPERTY (NO.2) LIMITED, priority 2013, dated 2022).
